Measured values published in patent US20080118475A1, “Model System for Testing the Efficacy of Pharmaceutical Preparation on Inflammatory Processes in the Nervous System” (KEYNEUROTEK AG, priority 2004, published 2008).
“Also recorded” adds a separate entry of the source.

Test system: organo-typical cultures of the hippocampus
Assay: Inflammation-provoked degeneration of organo-typical hippocampal slice cultures, propidium iodide fluorescence
Type: cell-based, Sprague-Dawley rats
Conditions: for degeneration of the tissue / neurons (propidium iodide staining), cytokin in combination with LPS: cytokin plus LPS (200 μm/ml [sic] in the source, 200 ηg/ml), 48 hours, M-CSF 10 ηg/ml, IFNy 30 ηg/ml, GM-CSF 1 ηg/ml; for protection of the neural tissue against degeneration (propidium iodide staining): reagent incubated over 48 hours together with LPS (200 ηg/ml) and GM-CSF (1 ηg/ml)
Procedure: For the preparation of organo-typical cultures of the hippocampus, 7 to 8 day-old Sprague-Dawley rats were used. From the isolated hippocampus of these animals ca. 400 μm thick slices were prepared, each approximately comprising 20 cell layers. […] The slices were able to be cultured in 6-pore culture plates for up to 3 weeks through changing the medium below the membrane.
All the incubations were carried out in a medium that contained a minimum of 50% of essential medium/HEPES, 25% of Hank's balanced salt solution and 25% of heat-inactivated horse serum.
The degeneration of the tissue was rendered visible by means of a propidium iodide-fluorescence of the cells, which, because of the injury sustained, could no longer prevent, […], diffusion into the cell nucleus and staining of the DNA. Consequently, the red fluorescence above a threshold value was evaluated as the signal for the degeneration of cells. The degree of degeneration per slice was expressed as the percentage of the total surface that the red values lay above the threshold.
Here, both reagents were incubated over 48 hours with LPS and GM-CSF. Thus, for working in this assay, both steroidal as well as non-steroidal reagents were used.
Organo-typical cultures were incubated with LPS either alone or in combination with the pro-inflammatory cytokins GM-CSF and M-CSF over 48 hours. The injury to the tissue (cell mortality) was established by means of propidium iodide staining (A) and quantified by means of an automated picture analysis (B).

Molecule	degeneration of the tissue / neurons (propidium iodide staining), cytokin in combination with LPS	protection of the neural tissue against degeneration (propidium iodide staining)	degeneration / injury of the tissue (propidium iodide staining), substance alone (incubated alone over 48 hours)
IFNy: pro-inflammatory cytokin that activates the microglia and can induce MHC expression	very strong degeneration of the tissue		
CC(C)Cc1ccc(C(C)C(=O)O)cc1 (stereo not drawn) [iboprufen, reference compound]		protective activity	
GM-CSF: Granulocyte Macrophage Colony-Stimulating Factor, pro-inflammatory cytokin	dramatic degeneration of neurons; also recorded: maximum injury		did not lead to any detectable injury
CC(=O)Oc1ccccc1C(=O)O [acetyl salicylic acid, reference compound]		complete protection of the neural tissue; also recorded: protected	
M-CSF: pro-inflammatory cytokin that activates microglia (protein, UniProt P09603 33-554, looked up) Macrophage colony-stimulating …: EEVSEYCSHMIGSGHLQSLQRLIDSQMETSCQITFEFVDQEQLKDPVCYLKKAFLLVQDIMEDTMRFRDNTPNAIAIVQLQELSLRLKSCFTKDYEEHDKACVRTFYETPLQLLEKVKNVFNETKNLLDKDWNIFSKNCNNSFAECSSQDVVTKPDCNCLYPKAIPSSDPASVSPHQPLAPSMAPVAGLTWEDSEGTEGSSLLPGEQPLHTVDPGSAKQRPPRSTCQSFEPPETPVVKDSTIGGSPQPRPSVGAFNPGMEDILDSAMGTNWVPEEASGEASEIPVPQGTELSPSRPGGGSMQTEPARPSNFLSASSPLPASAKGQQPADVTGTALPRVGPVRPTGQDWNHTPQKTDHPSALLRDPPEPGSPRISSLRPQGLSNPSTLSAQPQLSRSHSSGSVLPLGELEGRRSTRDRRSPAEPEGGPASEGAARPLPRFNSVPLTDTGHERQSEGSFSPQLQESVFHLLVPSVILVLLAVGGLLFYRWRRRSHQEPQRADSPLEQPEGSPLTQDDRQVELPV	dramatic degeneration of neurons; also recorded: less precipitous		
